Data as given in US20210215674A1, “COMPOSITIONS AND METHODS FOR SCREENING COMPOUNDS FOR CARDIAC SIDE EFFECTS” (Arizona Board of Regents on Behalf of the University of …, priority 2018, published 2021).

System: hiPSC-CM / fibroblast graft (bioengineered tissue)
Assay: ECG recording of bioengineered tissue on multi-electrode array with pharmacological perturbations
Format: cell-based, human
Conditions: for change of heart rate of the construct: continuous ECG recording, FIG. 8; for change of QT interval / change of R-R interval (heart rate-equivalent): single bioengineered tissue on multi-electrode array vs baseline, FIG. 10
Experimental: Methods of graft engineering: Human dermal fibroblasts were cultured into a vicryl (polygalctin 910) knitted mesh until the mesh was fully confluent with fibroblasts. Human induced pluripotent stem cell derived cardiomyocytes (hiPSC-CMs) were seeded onto the fibroblasts grafts using centrifugal force (1300 rpms for 5 min). All cell cultures were maintained at […] and 5% CO2 with media changed every 24-48 hrs. Fibroblasts were maintained with 10% FBS in DMEM, hiPSC-CMs were maintained with RPMI+B27. Grafts were either used fresh or after cryopreservation. Fresh grafts were assayed 48 hrs after hiPSC-CM engraftment. Cryopreserved grafts were assayed 2 days post reconstitution. Axion System Methods: […] diameter circular grafts were transferred to the Axion culture well, hiPSC-CM side down and three small 5 mm×1 mm weights were placed on the surface to enhance contact with the electrodes. Cultures were maintained at 37° C. and 5% CO2. Data were obtained at baseline, and then with pharmacological perturbations. NeuroNexus Methods: 1.6 cm diameter circular grafts were placed hiPSC-CM side down on the recording array. Cultures were maintained at 37° C. but no control was available for CO2. […] To enhance contact, the volume of medium in the culture well was reduced from 1.5 ml to 0.25-0.5 ml. Data were obtained at baseline, and then with pharmacological perturbations.

| SMILES | change of heart rate of the construct | change of QT interval | change of R-R interval (heart rate-equivalent) |
| --- | --- | --- | --- |
| CC(C)NCC(O)c1ccc(O)c(O)c1 (stereo not drawn) [Isoproterenol] | increase | decrease | decrease |
| CC(C)(C)NC[C@H](O)COc1nsnc1N1CCOCC1 [Timolol] | decrease | increase | increase |
